Assay results taken from the NIST ThermoML archive (doi:10.1016/j.fluid.2017.06.019).

Conditions: Coaxial cylinder method

CCC [propane]
thermal conductivity [W/m/K]
Conditions	Gas	Liquid
364.65 K, 4080 kPa	–	0.06377
364.65 K, 4100 kPa	–	0.06381
364.65 K, 4120 kPa	–	0.06385
364.65 K, 4140 kPa	–	0.06391
364.65 K, 4160 kPa	–	0.06398
364.65 K, 4180 kPa	–	0.06404
364.65 K, 4200 kPa	–	0.06412
364.65 K, 4220 kPa	–	0.06418
364.65 K, 4240 kPa	–	0.06424
364.65 K, 4260 kPa	–	0.06432
364.65 K, 4280 kPa	–	0.06439
364.65 K, 4300 kPa	–	0.06445
364.65 K, 4349 kPa	–	0.06465
364.65 K, 4364 kPa	–	0.06469
364.65 K, 4372 kPa	–	0.06473
364.65 K, 4380 kPa	–	0.06475
364.65 K, 4388 kPa	–	0.06475
365.72 K, 3306 kPa	0.03402	0.03402
365.72 K, 3882 kPa	0.04279	–
365.72 K, 3883 kPa	0.04289	–
365.72 K, 3884 kPa	0.04575	–
365.72 K, 3885 kPa	0.04607	–
365.72 K, 3890 kPa	0.05157	–
365.72 K, 3891 kPa	0.05307	–
365.72 K, 3892 kPa	0.05526	–
365.72 K, 3893 kPa	0.0573	–
365.72 K, 3894 kPa	0.05933	–
365.72 K, 3895 kPa	0.06131	–
365.72 K, 3896 kPa	0.06342	–
365.72 K, 3897 kPa	0.06568	–
365.72 K, 3898 kPa	0.06813	–
365.72 K, 3899 kPa	0.07049	–
365.72 K, 3900 kPa	0.07276	–
365.72 K, 3901 kPa	0.07497	–
365.72 K, 3902 kPa	0.07801	–
365.72 K, 3903 kPa	0.0811	–
365.72 K, 3904 kPa	0.08423	–
365.72 K, 3905 kPa	0.08726	–
365.72 K, 3906 kPa	0.09038	–
365.72 K, 3907 kPa	0.09365	–
365.72 K, 3908 kPa	0.09697	–
365.72 K, 3909 kPa	0.1001	–
365.72 K, 3910 kPa	0.1033	–
365.72 K, 3911 kPa	0.1068	–
365.72 K, 3912 kPa	0.1099	–
365.72 K, 3913 kPa	0.1132	–
365.72 K, 3914 kPa	0.1164	–
365.72 K, 3915 kPa	0.1201	–
365.72 K, 3916 kPa	0.1234	–
365.72 K, 3917 kPa	0.1273	–
365.72 K, 3918 kPa	0.1307	–
365.72 K, 3919 kPa	0.1341	–
365.72 K, 3920 kPa	0.1379	–
365.72 K, 3921 kPa	0.1413	–
365.72 K, 3922 kPa	0.1454	–
365.72 K, 3923 kPa	0.149	–
365.72 K, 3924 kPa	0.1527	–
365.72 K, 3925 kPa	0.1565	–
365.72 K, 3926 kPa	0.1605	–
365.72 K, 3927 kPa	0.1644	–
365.72 K, 3928 kPa	0.1684	–
365.72 K, 3929 kPa	0.1724	–
365.72 K, 3930 kPa	0.1763	–
365.72 K, 3931 kPa	0.1804	–
365.72 K, 3932 kPa	0.1846	–
365.72 K, 3933 kPa	0.1886	–
365.72 K, 3934 kPa	0.1932	–
365.72 K, 3935 kPa	0.1972	–
365.72 K, 3936 kPa	0.2015	–
365.72 K, 3937 kPa	0.2059	–
365.72 K, 3938 kPa	0.2104	–
365.72 K, 3939 kPa	0.2148	–
365.72 K, 3940 kPa	0.2193	–
365.72 K, 3941 kPa	0.2241	–
365.72 K, 3942 kPa	0.229	–
365.72 K, 3943 kPa	0.2336	–
365.72 K, 3944 kPa	0.2401	–
365.72 K, 3945 kPa	–	0.2612
365.72 K, 3946 kPa	–	0.2502
365.72 K, 3947 kPa	–	0.2373
365.72 K, 3948 kPa	–	0.224
365.72 K, 3949 kPa	–	0.2125
365.72 K, 3950 kPa	–	0.2005
365.72 K, 3951 kPa	–	0.1903
365.72 K, 3952 kPa	–	0.1805
365.72 K, 3953 kPa	–	0.1711
365.72 K, 3954 kPa	–	0.1622
365.72 K, 3955 kPa	–	0.1544
365.72 K, 3956 kPa	–	0.1467
365.72 K, 3957 kPa	–	0.1394
365.72 K, 3958 kPa	–	0.1335
365.72 K, 3959 kPa	–	0.1273
365.72 K, 3960 kPa	–	0.1217
365.72 K, 3961 kPa	–	0.1164
365.72 K, 3962 kPa	–	0.1139
365.72 K, 3963 kPa	–	0.1116
365.72 K, 3964 kPa	–	0.1094
365.72 K, 3965 kPa	–	0.1072
365.72 K, 3966 kPa	–	0.1052
365.72 K, 3967 kPa	–	0.1032
365.72 K, 3968 kPa	–	0.1013
365.72 K, 3969 kPa	–	0.09939
365.72 K, 3970 kPa	–	0.09778
365.72 K, 3971 kPa	–	0.09605
365.72 K, 3972 kPa	–	0.09456
365.72 K, 3973 kPa	–	0.09289
365.72 K, 3974 kPa	–	0.09145
365.72 K, 3975 kPa	–	0.09005
365.72 K, 3976 kPa	–	0.08869
365.72 K, 3977 kPa	–	0.08737
